Data reported in US20080207705A1, “Heteroaryl-Imidazole Derivatives as Cannabinoid CB1 Receptor Antagonists” (Green Cross Corporation, priority 2007, published 2008).
pIC50: −log10 of the molar value.

target: T1, rat CB-1 receptor (Rattus norvegicus, UniProt P20272); assay: rat CB-1 receptor binding protocol with [3H]CP-55940; settings: not given
T1 construct: The tissue obtained from the brain of SD rats was homogenized; from tissue; host or cells: brain of SD rats (membrane pellet of homogenate)
T1 sequence (P20272 whole entry): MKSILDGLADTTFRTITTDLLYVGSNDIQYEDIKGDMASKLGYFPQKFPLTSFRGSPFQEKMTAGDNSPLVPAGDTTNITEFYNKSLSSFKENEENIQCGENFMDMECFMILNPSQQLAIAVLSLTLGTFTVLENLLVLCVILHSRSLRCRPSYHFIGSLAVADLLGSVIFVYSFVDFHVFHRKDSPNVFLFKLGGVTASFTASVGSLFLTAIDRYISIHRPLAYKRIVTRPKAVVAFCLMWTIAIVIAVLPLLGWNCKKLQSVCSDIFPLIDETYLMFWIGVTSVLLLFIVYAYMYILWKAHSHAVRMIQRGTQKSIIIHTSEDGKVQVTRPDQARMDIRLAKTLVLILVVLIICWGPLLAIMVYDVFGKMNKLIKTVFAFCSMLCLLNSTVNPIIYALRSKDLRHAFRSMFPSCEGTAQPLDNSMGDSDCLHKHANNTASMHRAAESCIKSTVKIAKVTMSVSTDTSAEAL

In order of rising pIC50:
1. Cc1c(-c2nnc(C(C)(C)C)o2)nc(-c2ccccc2Cl)n1-c1ccc(Br)cc1 [Example 51, 2-(1-(4-Bromophenyl)-2-(2-chlorophenyl)-5-methyl-1H-imidazol-4-yl)-5-tert-butyl-1,3,4-oxadiazole]  7.50
2. CCc1c(-c2nnc(C3(c4ccc(OC)cc4)CC3)o2)nc(-c2ccc(Cl)cc2Cl)n1-c1ccc(Br)cc1 [Example 42, 2-(1-(4-Bromophenyl)-2-(2,4-dichlorophenyl)-5-ethyl-1H-imidazol-4-yl)-5-(1-(4-methoxyphenyl)cyclopropyl)-1,3,4-oxadiazole]  7.73
3. CCc1c(-c2nnc(C3(C(F)(F)F)CCC3)o2)nc(-c2ccccc2Cl)n1-c1ccc(Br)cc1 [Example 57, 2-(1-(4-Bromophenyl)-2-(2-chlorophenyl)-5-ethyl-1H-imidazol-4-yl)-5-(1-(trifluoromethyl)cyclobutyl)-1,3,4-oxadiazole]  7.87
4. Cc1c(-c2nnc(C3(C(F)(F)F)CCC3)o2)nc(-c2ccccc2Cl)n1-c1ccc(Br)cc1 [Example 53, 2-(1-(4-Bromophenyl)-2-(2-chlorophenyl)-5-methyl-1H-imidazol-4-yl)-5-(1-(trifluoromethyl)cyclobutyl)-1,3,4-oxadiazole]  7.94
5. CCc1c(-c2nnc(C3(C(F)(F)F)CCC3)o2)nc(-c2ccc(Cl)cc2Cl)n1-c1ccc(Br)cc1 [Example 50, 2-(1-(4-Bromophenyl)-2-(2,4-dichlorophenyl)-5-ethyl-1H-imidazol-4-yl)-5-(1-(trifluoromethyl)cyclobutyl)-1,3,4-oxadiazole]  8.02
6. CCc1c(-c2nnc(C3(c4ccc(Cl)cc4)CC3)o2)nc(-c2ccc(Cl)cc2Cl)n1-c1ccc(Br)cc1 [Example 40, 2-(1-(4-Bromophenyl)-2-(2,4-dichlorophenyl)-5-ethyl-1H-imidazol-4-yl)-5-(1-(4-chlorophenyl)cyclopropyl)-1,3,4-oxadiazole]  8.04
7. CCc1c(-c2nnc(C3(c4ccc(C)cc4)CC3)o2)nc(-c2ccc(Cl)cc2Cl)n1-c1ccc(Br)cc1 [Example 43, 2-(1-(4-Bromophenyl)-2-(2,4-dichlorophenyl)-5-ethyl-1H-imidazol-4-yl)-5-(1-p-tolylcyclopropyl)-1,3,4-oxadiazole]  8.08
8. CCc1c(-c2nnc(C3(c4ccc(Cl)cc4Cl)CC3)o2)nc(-c2ccc(Cl)cc2Cl)n1-c1ccc(Br)cc1 [Example 44, 2-(1-(4-Bromophenyl)-2-(2,4-dichlorophenyl)-5-ethyl-1H-imidazol-4-yl)-5-(1-(2,4-dichlorophenyl)cyclopropyl)-1,3,4-oxadiazole]  8.09
9. FC(F)(F)C1(c2nnc(-c3nc(-c4ccc(Cl)cc4Cl)n(-c4ccc(Br)cc4)c3Cn3cncn3)o2)CCC1 [Example 76, 2-(5-((1H-1,2,4-Triazol-1-yl)methyl)-1-(4-bromophenyl)-2-(2,4-dichlorophenyl)-1H-imidazol-4-yl)-5-(1-(trifluoromethyl)cyclobutyl)-1,3,4-oxadiazole]  8.40

same assay, conditions: [3H]CP-55940, brain tissue of SD rats, 30 °C for 60 min; read-out: IC50

In order of falling pIC50:
1. Clc1ccc(C2(c3nnc(-c4nc(-c5ccc(Cl)cc5Cl)n(-c5ccc(Br)cc5)c4Cn4cncn4)o3)CC2)cc1 [Example 77, 2-(5-((1H-1,2,4-Triazol-1-yl)methyl)-1-(4-bromophenyl)-2-(2,4-dichlorophenyl)-1H-imidazol-4-yl)-5-(1-(4-chlorophenyl)cyclopropyl)-1,3,4-oxadiazole]  8.47
2. FC(F)(F)C1(c2nnc(-c3nc(-c4ccccc4Cl)n(-c4ccc(Br)cc4)c3Cn3cncn3)o2)CCC1 [Example 80, 2-(5-((1H-1,2,4-Triazol-1-yl)methyl)-1-(4-bromophenyl)-2-(2-chlorophenyl)-1H-imidazol-4-yl)-5-(1-(trifluoromethyl)cyclobutyl)-1,3,4-oxadiazole]  8.47
3. CC(C)(C)c1nnc(-c2nc(-c3ccc(Cl)cc3Cl)n(-c3ccc(Br)cc3)c2Cn2cncn2)o1 [Example 74, 2-(5-((1H-1,2,4-Triazol-1-yl)methyl)-1-(4-bromophenyl)-2-(2,4-dichlorophenyl)-1H-imidazol-4-yl)-5-tert-butyl-1,3,4-oxadiazole]  8.28
4. FC(F)(F)C1(c2nnc(-c3nc(-c4ccccc4Cl)n(-c4ccc(Br)cc4)c3Cn3cncn3)o2)CC1 [Example 79, 2-(5-((1H-1,2,4-Triazol-1-yl)methyl)-1-(4-bromophenyl)-2-(2-chlorophenyl)-1H-imidazol-4-yl)-5-(1-(trifluoromethyl)cyclopropyl)-1,3,4-oxadiazole]  8.16
5. FC(F)(F)C1(c2nnc(-c3nc(-c4ccc(Cl)cc4Cl)n(-c4ccc(Br)cc4)c3Cn3cncn3)o2)CC1 [Example 75, 2-(5-((1H-1,2,4-Triazol-1-yl)methyl)-1-(4-bromophenyl)-2-(2,4-dichlorophenyl)-1H-imidazol-4-yl)-5-(1-(trifluoromethyl)cyclopropyl)-1,3,4-oxadiazole]  8.06
6. CCc1c(-c2nnc(C3(c4ccc(Cl)cc4)CC3)o2)nc(-c2ccccc2Cl)n1-c1ccc(Br)cc1 [Example 58, 2-(1-(4-Bromophenyl)-2-(2-chlorophenyl)-5-ethyl-1H-imidazol-4-yl)-5-(1-(4-chlorophenyl)cyclopropyl)-1,3,4-oxadiazole]  7.99
7. CC(C)(C)c1nnc(-c2nc(-c3ccccc3Cl)n(-c3ccc(Br)cc3)c2Cn2cncn2)o1 [Example 78, 2-(5-((1H-1,2,4-Triazol-1-yl)methyl)-1-(4-bromophenyl)-2-(2-chlorophenyl)-1H-imidazol-4-yl)-5-tert-butyl-1,3,4-oxadiazole]  7.99
8. CCc1c(-c2nnc(C3(c4ccc(Cl)cc4)CCCC3)o2)nc(-c2ccc(Cl)cc2Cl)n1-c1ccc(Br)cc1 [Example 45, 2-(1-(4-Bromophenyl)-2-(2,4-dichlorophenyl)-5-ethyl-1H-imidazol-4-yl)-5-(1-(4-chlorophenyl)cyclopentyl)-1,3,4-oxadiazole]  7.94
9. CCCc1c(-c2nnc(C3(c4ccc(Cl)cc4)CCC3)o2)nc(-c2ccc(Cl)cc2Cl)n1-c1ccc(Cl)cc1 [Example 38, 2-(1-(4-Chlorophenyl)-2-(2,4-dichlorophenyl)-5-propyl-1H-imidazol-4-yl)-5-(1-(4-chlorophenyl)cyclobutyl)-1,3,4-oxadiazole]  7.93
10. CC(C)(C)c1nnc(-c2nc(-c3ccc(Cl)cc3Cl)n(-c3ccc(Cl)cc3)c2Cn2cncn2)o1 [Example 87, 2-(5-((1H-1,2,4-Triazol-1-yl)methyl)-1-(4-chlorophenyl)-2-(2,4-dichlorophenyl)-1H-imidazol-4-yl)-5-tert-butyl-1,3,4-oxadiazole]  7.92
11. CCc1c(-c2nnc(C3(c4ccc(Cl)cc4)CCC3)o2)nc(-c2ccc(Cl)cc2Cl)n1-c1ccc(Br)cc1 [Example 41, 2-(1-(4-Bromophenyl)-2-(2,4-dichlorophenyl)-5-ethyl-1H-imidazol-4-yl)-5-(1-(4-chlorophenyl)cyclobutyl)-1,3,4-oxadiazole]  7.87
12. CCc1c(-c2nnc(C(C)(C)C)o2)nc(-c2ccccc2Cl)n1-c1ccc(Br)cc1 [Example 55, 2-(1-(4-Bromophenyl)-2-(2-chlorophenyl)-5-ethyl-1H-imidazol-4-yl)-5-tert-butyl-1,3,4-oxadiazole]  7.83
13. CCCc1c(-c2nnc(C3(c4ccc(Cl)cc4)CC3)o2)nc(-c2ccc(Cl)cc2Cl)n1-c1ccc(Cl)cc1 [Example 37, 2-(1-(4-Chlorophenyl)-2-(2,4-dichlorophenyl)-5-propyl-1H-imidazol-4-yl)-5-(1-(4-chlorophenyl)cyclopropyl)-1,3,4-oxadiazole]  7.82
14. Cc1c(-c2nnc(C3(C(F)(F)F)CC3)o2)nc(-c2ccc(Cl)cc2Cl)n1-c1ccc(Br)cc1 [Example 46, 2-(1-(4-Bromophenyl)-2-(2,4-dichlorophenyl)-5-methyl-1H-imidazol-4-yl)-5-(1-(trifluoromethyl)cyclopropyl)-1,3,4-oxadiazole]  7.81
15. CCc1c(-c2nnc(C3(C(F)(F)F)CC3)o2)nc(-c2ccc(Cl)cc2Cl)n1-c1ccc(Br)cc1 [Example 49, 2-(1-(4-Bromophenyl)-2-(2,4-dichlorophenyl)-5-ethyl-1H-imidazol-4-yl)-5-(1-(trifluoromethyl)cyclopropyl)-1,3,4-oxadiazole]  7.78
16. Cc1c(-c2nnc(C3(c4ccc(Cl)cc4)CC3)o2)nc(-c2ccc(Cl)cc2Cl)n1-c1ccc(Br)cc1 [Example 48, 2-(1-(4-Bromophenyl)-2-(2,4-dichlorophenyl)-5-methyl-1H-imidazol-4-yl)-5-(1-(4-chlorophenyl)cyclopropyl)-1,3,4-oxadiazole]  7.73
17. Cc1c(-c2nnc(C3(C(F)(F)F)CC3)o2)nc(-c2ccccc2Cl)n1-c1ccc(Br)cc1 [Example 52, 2-(1-(4-Bromophenyl)-2-(2-chlorophenyl)-5-methyl-1H-imidazol-4-yl)-5-(1-(trifluoromethyl)cyclopropyl)-1,3,4-oxadiazole]  7.73
18. CCCc1c(-c2nnc(C(C)(C)C)o2)nc(-c2ccc(Cl)cc2Cl)n1-c1ccc(Cl)cc1 [Example 35, 2-tert-Butyl-5-(1-(4-chlorophenyl)-2-(2,4-dichlorophenyl)-5-propyl-1H-imidazol-4-yl)-1,3,4-oxadiazole]  7.72
19. CCc1c(-c2nnc(C3(C(F)(F)F)CC3)o2)nc(-c2ccccc2Cl)n1-c1ccc(Br)cc1 [Example 56, 2-(1-(4-Bromophenyl)-2-(2-chlorophenyl)-5-ethyl-1H-imidazol-4-yl)-5-(1-(trifluoromethyl)cyclopropyl)-1,3,4-oxadiazole]  7.70
20. Cc1c(-c2nnc(C3(C(F)(F)F)CCC3)o2)nc(-c2ccc(Cl)cc2Cl)n1-c1ccc(Br)cc1 [Example 47, 2-(1-(4-Bromophenyl)-2-(2,4-dichlorophenyl)-5-methyl-1H-imidazol-4-yl)-5-(1-(trifluoromethyl)cyclobutyl)-1,3,4-oxadiazole]  7.56
21. CCCc1c(-c2nnc(C3CCC3)o2)nc(-c2ccc(Cl)cc2Cl)n1-c1ccc(Cl)cc1 [Example 36, 2-(1-(4-Chlorophenyl)-2-(2,4-dichlorophenyl)-5-propyl-1H-imidazol-4-yl)-5-cyclobutyl-1,3,4-oxadiazole]  7.22
22. CCCc1c(-c2nnc(C3CCCCC3)o2)nc(-c2ccc(Cl)cc2Cl)n1-c1ccc(Cl)cc1 [Example 39, 2-(1-(4-Chlorophenyl)-2-(2,4-dichlorophenyl)-5-propyl-1H-imidazol-4-yl)-5-cyclohexyl-1,3,4-oxadiazole]  7.06
